We go through 3 compounds from patent US20090111818A1, “Combinations of Eszopiclone and O-Desmethylvenlafaxine, and Methods of Treatment of Menopause and Mood, Anxiety, and Cognitive Disorders” (SEPRACOR INC., priority 2005, published 2009).

For series [1], the system named is norepinephrine synaptosomal uptake. To be noted: cited from earlier work.
The subject of series [2] is women with insomnia secondary to perimenopause or menopause. The series can be described thus: Clinical study of eszopiclone 3 mg vs placebo: number of nocturnal awakenings due to hot flashes. Format: in vivo, human. Conditions: Week 1; 3 mg nightly; p<0.0001. The protocol: The study was aimed at observing efficacy of eszopiclone 3 mg compared to placebo in the treatment of insomnia secondary to perimenopause or menopause.
The study was a multicenter, randomized, double-blind, placebo-controlled, parallel-group study. […] The primary method of analysis compared the post-randomization results between the two treatment groups.
Subjects were women with insomnia secondary to perimenopause or menopause. Subjects were perimenopausal or menopausal and had insomnia symptoms including ≧45 minutes sleep latency (SL) and total sleep time (TST) ≦6 hours. Perimenopausal/menopausal symptoms predated the onset of sleep disturbance symptoms. The patient population was predominately Caucasian (77.2%). The mean age was 49, with a range of 40-60.
A total of 410 subjects were randomized. Among them, 201 received 3 mg of eszopiclone (ESZ) nightly (at bedtime) for four weeks and 209 received matching placebo (PBO).

The conditions of series [3]: in vivo; cited from earlier work.
Series [4] concerns dopamine uptake. Conditions: in vitro; cited from earlier work.
Series [5] has as its system norepinephrine uptake. To be noted: in vitro; cited from earlier work.

Regarding `COc1ccc(C(CN(C)C)C2(O)CCCCC2)cc1` (single isomer, unassigned) [venlafaxine (−) enantiomer], the “inhibition of norepinephrine synaptosomal uptake, comparison of enantiomers” value in series [1] was “more potent inhibitor”.
As for `CN1CCN(C(=O)O[C@H]2c3nccnc3C(=O)N2c2ccc(Cl)cn2)CC1` [Eszopiclone, (+) 6-(5-chloropyrid-2-yl)-5-(4-methylpiperazin-1-yl)carbonyloxy-7-oxo-6,7-dihydro-5H-pyrrolo[3-4-b]pyrazine], the “change from baseline in number of nocturnal awakenings due to hot flashes compared with PBO” value in series [2] is “significantly reduced”.
As to `CN(C)CC(c1ccc(O)cc1)C1(O)CCCCC1` (racemic) [O-desmethylvenlafaxine, (±)-1-[2-(dimethylamino)-1-(4-hydroxyphenyl)ethyl]-cyclohexanol], in series [3], the “half-life (t½)” value was “about 10 hours” and the “half-life relative to that of venlafaxine” value was “approximately 2.5 times”. The “inhibition of dopamine uptake compared with the parent compound venlafaxine” value in series [4] is recorded as “more potent inhibitor”. Further, the “inhibition of norepinephrine uptake compared with the parent compound venlafaxine” value in series [5] is reported as “more potent inhibitor”.
